Data on six compounds can be found in patent publication US20090246152A1, “NARACTIN COMPOSITIONS FOR THE INHIBITION OF REACTIVE OXYGEN SPECIES” (Nu Skin International, Inc., priority 2008, published 2009).

Assay [1] relates to arNOX. The assay can be described thus: arNOX inhibition, superoxide-dependent reduction of ferric cytochrome c with serum or buffy coats (Table 1). The format is biochemical. To be noted: 25 μg/ml. Here is the method:
Superoxide Production By Buffy Coats: Buffy coats, a mixture of lymphocytes and platelets. Such buffy coats are commercially available from, for example, Rockland ImmunoChemicals (Gilbertsville, Pa.). The blood samples were maintained at 4° C. prior to collection and assay. Ca. 10^7 cells were added to each assay. Cell numbers were determined using a hemocytometer.
Reduction of ferric cytochrome c by superoxide was employed as a standard measure of superoxide formation (Mayo, L. A. and Cumutte, J. (1990) Meth. Enzyme. 186, 567-575. 7. Butler, J, Koppenol, W. H. and Margollash, E. (1982) J. Biol. Chem. 257, 10747). This is a widely accepted method when coupled to superoxide dismutase inhibition for the measurement of superoxide generation. The assay consists of 150 μl serum or 40 μl buffy coats in PBSG buffer (8.06 g NaCl, 0.2 g KCl, 0.18 g Na2HPO4, 0.26 g KH2PO4, 0.13 g CaCl2, 0.1 g MgCl2 1.35 g glucose dissolved in 1000 ml deionized water, adjusted to pH 7.4, filtered and stored at 4° C.) Rates were determined using an SLM Aminco DW-2000 spectrophotometer (Milton Roy, Rochester, N.Y., USA) in the dual wave length mode of operation with continuous measurements over 1 min every 1.5 min. After 45 min, test compounds were added and the reaction was continued for 45 min. After 45 min. a millimolar extinction coefficient of […] was used for reduced ferricytochrome c. Extracts were made of the compounds in water unless otherwise indicated.

Assay [2] concerns arNOX. The assay can be described thus: arNOX activity of saliva (person), ferricytochrome c reduction. Type of assay: biochemical, human. To be noted: for inhibition of arNOX activity of saliva: 1 mg/ml, saliva from person; for augmentation of low activity N. tazetta powder: FIGS. 1a and 1b; for arNOX inhibition (result in words): substance or extract alone.
Method: Of the mixture, 60 μl was added to at total of three ml of assay mixture containing saliva as the arNOX activity source.
The assay consists of 150 μl serum or 40 μl buffy coats in PBSG buffer (8.06 g NaCl, 0.2 g KCl, 0.18 g Na2HPO4, 0.26 g KH2PO4, 0.13 g CaCl2, 0.1 g MgCl2 1.35 g glucose dissolved in 1000 ml deionized water, adjusted to pH 7.4, filtered and stored at 4° C.) Rates were determined using an SLM Aminco DW-2000 spectrophotometer (Milton Roy, Rochester, N.Y., USA) in the dual wave length mode of operation with continuous measurements over 1 min every 1.5 min. After 45 min, test compounds were added and the reaction was continued for 45 min. After 45 min. a millimolar extinction coefficient of 19.1 cm^−1 was used for reduced ferricytochrome c. Extracts were made of the compounds in water unless otherwise indicated.

With `CC1=C(/C=C/C(C)=C/C=C/C(C)=C/C=C/C=C(C)/C=C/C=C(C)/C=C/C2=C(C)C(=O)[C@@H](O)CC2(C)C)C(C)(C)C[C@H](O)C1=O` [Natural astaxanthin, astaxanthin], the “ArNOX ACTIVITY % OF NO ADDITION” value in the assay on arNOX [1] (Ethanol) amounted to 62%.
`O=C(NO)c1ccccc1O` [SHAM, salicyl hydroxamate]: in the assay on arNOX [2], the “inhibition of arNOX activity of saliva” value is given as “greater than 90%” and the “augmentation of low activity N. tazetta powder” value is on record as “notably decreased arNOX activity”. In addition, the “arNOX activity after addition to N. tazetta powder extract” value with arNOX [2] (saliva of person, FIG. 1a) is “nearly complete inhibition”. In addition, in the assay on arNOX [2] (saliva, FIG. 7), the “concentration at which inhibition of arNOX activity is largely complete” value is 11 mg/mL.
As for `O=C(O)c1ccccc1O` [Salicylic acid, salicylic acid], in the assay with arNOX [2], the “inhibition of arNOX activity of saliva” value was “about 50%” and the “arNOX inhibition (result in words)” value is given as “found to inhibit arNOX activity”.
In the case of `CC(=O)Oc1ccccc1C(=O)O` [aspirin, reference compound], the “arNOX inhibition (result in words)” value in the assay on arNOX [2] was “did not inhibit arNOX activity”.
On to `OCc1ccccc1O[C@@H]1O[C@H](CO)[C@@H](O)[C@H](O)[C@H]1O` [salicin], for which the “augmentation of arNOX inhibition of mixtures of Schizandra chinensis powder and N. tazetta powder/extract” value in the assay on arNOX [2] (1 mg/ml salicin, FIGS. 10a, 10b) was “active in augmenting the arNOX inhibition”. For the same compound, the “active concentration relative to SHAM (Naractin 1) or salicylic acid (Naractin 2)” value in the assay on arNOX [2] (FIG. 9) was “active at a ten-fold lower concentration”. Moreover, in the assay with arNOX [2], the “augmentation of low activity N. tazetta powder” value was “notably decreased arNOX activity” and the “arNOX inhibition (result in words)” value was “active as a single agent”. In the assay with arNOX [2] (saliva, FIG. 9), the “concentration at which maximum inhibition of arNOX activity is achieved” value worked out at 1 mg/mL.
Regarding `CC1=C(/C=C/C(C)=C/C=C/C(C)=C/C=C/C=C(C)/C=C/C=C(C)/C=C/C2=C(C)CCCC2(C)C)C(C)(C)CCC1` [β-Carotene], the “ArNOX ACTIVITY % OF NO ADDITION” value with arNOX [1] (Ethanol) amounted to 68%; in the assay with arNOX [1] (Water), 28%.
